Entries after “also recorded” stand apart in the source; their conditions may differ.
Assays:
LUHMES neurons = assay: Morphological inspection and counts of viable cells; format: cell-based, human; conditions: co-treatment with PERK activator
Procedure: (§1) Nunc™ Nunclon™ Delta 6-well (for protein and mRNA) or 48-well (for cell assays) plates (Thermo Fisher Scientific, Waltham, Mass., USA) were coated with 100 μg/ml poly-L-lysine (Sigma-Aldrich, St. Louis, Mo., USA) and 5 μg/ml fibronectin (Sigma-Aldrich). LUHMES (Lund Human Mesencephalic) cells, derived from human embryonic ventral mesencephalic cells by conditional immortalization (Tet-off v-myc over-expression) were seeded out in a concentration of 130,000 cells/cm^2 to achieve a confluence of 50%. They were then differentiated for 8 days in a medium of DMEM/F12 (Sigma-Aldrich), 1 μg/ml tetracycline, […] and 490 μg/ml dbcAMP into post-mitotic neurons with a dopaminergic phenotype (Lotharius et al. 2005).
(§2) For all experiments with annonacin, the medium was replaced during the intoxication period with new medium containing glucose levels reduced to 250 μM, i.e. the physiological concentration in the human brain.
The protection by the PERK activator against annonacin and 4R-tau protein overexpression was also evident on morphological inspection of the cells. […] Lentiviral 4R-tau overexpression had similar effects. […] Cell counts of viable cells with intact nuclear and somatic morphology were counted in randomly selected 1300×1000 sized areas in 4 biological replicates each, confirming the protective effects of Pa.

tau [1] = assay: Western blot of tau phosphorylation, 4R-tau overexpression model; format: cell-based, human; conditions: 4R-tau overexpressing lentivirus 8 days + PERK activator
Procedure: as §1, §2
Concentrated lentiviral particles were titrated by transducing LUHMES cells with different dilutions at 6 hours after initiating differentiation. The lowest dilution at which at least 90% of cells expressed the transgene (as determined by immunohistochemistry of the cells fixed on day 2 post differentiation) was chosen for subsequent experiments. For these, concentrated lentiviral particles were again added into the medium on day 0, 6 hours after initiating differentiation.
(§3) Protein was extracted by scraping the cells from the culture plate with Mammalian Protein Extraction Reagent (M-PER, Thermo Fisher Scientific) and 1× cOmplete Protease Inhibitor Cocktail Tablets (Hoffmann-La Roche, Basel, Switzerland) and 1× PhosSTOP Phosphatase Inhibitor Cocktail Tablets (Hoffmann-La Roche). For pNRF2 blots, cells were extracted with 2% SDS tris-buffer instead of M-PER in order to obtain whole cell extracts and not to lose the nuclear fraction. […] Protein concentrations were determined using the BCA kit (Thermo Fisher Scientific) by heating the samples at 60° C. for 30 min and measuring the absorption on the NanoDrop 2000c Spectrophotometer (Thermo Fisher Scientific). […]

PERK = target: T1, PERK (Homo sapiens, UniProt Q9NZJ5); conditions: Stockwell et al. 2012; cited from earlier work
T1 sequence (Q9NZJ5 30-1116): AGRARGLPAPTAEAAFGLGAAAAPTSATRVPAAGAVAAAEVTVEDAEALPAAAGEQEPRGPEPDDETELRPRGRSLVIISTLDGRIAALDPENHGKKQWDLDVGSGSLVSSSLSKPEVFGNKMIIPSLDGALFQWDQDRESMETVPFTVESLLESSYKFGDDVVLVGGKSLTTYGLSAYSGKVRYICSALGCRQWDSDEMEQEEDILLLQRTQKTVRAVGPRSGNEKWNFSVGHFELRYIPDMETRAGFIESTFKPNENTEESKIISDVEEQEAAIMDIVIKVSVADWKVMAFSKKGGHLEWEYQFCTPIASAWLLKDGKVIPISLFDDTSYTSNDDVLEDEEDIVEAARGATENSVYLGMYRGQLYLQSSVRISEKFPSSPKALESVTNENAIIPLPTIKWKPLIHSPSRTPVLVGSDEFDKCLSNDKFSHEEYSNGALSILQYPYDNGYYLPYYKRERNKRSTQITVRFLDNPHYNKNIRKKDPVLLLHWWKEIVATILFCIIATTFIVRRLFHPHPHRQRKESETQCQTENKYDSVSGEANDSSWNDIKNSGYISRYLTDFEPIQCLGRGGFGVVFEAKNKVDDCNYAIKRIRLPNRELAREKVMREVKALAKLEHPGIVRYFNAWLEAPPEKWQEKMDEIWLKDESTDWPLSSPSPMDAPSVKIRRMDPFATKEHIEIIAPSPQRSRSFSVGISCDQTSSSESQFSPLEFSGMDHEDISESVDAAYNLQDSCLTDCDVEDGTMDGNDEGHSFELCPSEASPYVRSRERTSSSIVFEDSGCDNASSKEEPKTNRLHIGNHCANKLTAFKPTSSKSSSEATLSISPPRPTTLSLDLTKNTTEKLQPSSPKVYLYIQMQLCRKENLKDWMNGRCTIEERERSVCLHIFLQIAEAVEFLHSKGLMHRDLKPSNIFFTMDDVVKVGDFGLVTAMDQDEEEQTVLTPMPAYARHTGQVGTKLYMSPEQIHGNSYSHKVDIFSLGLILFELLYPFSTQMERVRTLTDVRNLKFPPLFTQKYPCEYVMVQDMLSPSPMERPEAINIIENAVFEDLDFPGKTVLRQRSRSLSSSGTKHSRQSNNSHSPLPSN

tau [2] = assay: Western blot of tau conformation and phosphorylation, annonacin model; format: cell-based, human; conditions: annonacin 25 nM + PERK activator, 48 h
Procedure: as §1, §2
Protein was extracted by scraping the cells from the culture plate with Mammalian Protein Extraction Reagent (M-PER, Thermo Fisher Scientific) and 1× cOmplete Protease Inhibitor Cocktail Tablets (Hoffmann-La Roche, Basel, Switzerland) and 1× PhosSTOP Phosphatase Inhibitor Cocktail Tablets (Hoffmann-La Roche). For pNRF2 blots, cells were extracted with 2% SDS tris-buffer instead of M-PER in order to obtain whole cell extracts and not to lose the nuclear fraction. The protein solution was frozen at −80° C., immediately after retrieval, for a minimum of two hours. The solution was then thawed on ice, vortexed, centrifuged at 5000 g for 15 min at 4° C. and the supernatant retrieved. Protein concentrations were determined using the BCA kit (Thermo Fisher Scientific) by heating the samples at 60° C. for 30 min and measuring the absorption on the NanoDrop 2000c Spectrophotometer (Thermo Fisher Scientific).
20 μg of protein (unless indicated otherwise) were adjusted to equal concentrations between samples by dilution with M-PER and subsequently heated at 95° C. for 5 minutes with Roti®-Load 1 (Carl Roth). SDS-PAGE was performed using Any kD™ Mini-PROTEAN® TGX™ Gels (BioRad, Berkeley, Calif., USA) in a tris-glycine running buffer. The protein was blotted onto PVDF membrane (BioRad) at 70 V for 65 minutes on ice. The membrane was blocked with 1× Roti®-Block solution (Carl Roth) for 1 h and then incubated at 4° C. overnight under gentle shaking with the primary antibody (see Table 5) in TBS with 5% BSA (Cell Signaling Technology) and 0.05% TWEEN (Sigma-Aldrich).
The membranes were then washed and incubated with the species specific HRP-bound secondary antibody (Vector Laboratories, Burlingame, Calif., USA) at 1:2500 in 1× Roti®-Block solution for 2 h, followed by further washing and exposure to Clarity Western ECL Substrate (BioRad) or, in the case of MC1 and 4R-tau, to Amersham™ ECL™ Prime (GE Healthcare). Chemiluminescence was detected with the Gel Doc™ XR System (BioRad) and analyzed with Image Lab™ software (BioRad), followed by graphical and statistical analysis with Prism 6 (GraphPad Software).

[3] = system: 4R-tau and 3R-tau isoforms; assay: Western blot of 3R-/4R-tau isoforms, annonacin model; format: cell-based, human; conditions: annonacin 25 nM + PERK activator, 48 h
Procedure: as §1, with “2005). […]” for “2005).”
as §3, with “Roche).” for “Roche). For pNRF2 blots, cells were extracted with 2% SDS tris-buffer instead of M-PER in order to obtain whole cell extracts and not to lose the nuclear fraction.”

For `CCN(CC)CCC(=O)N1N=C(c2c(-c3ccccc3)c3cc(Br)ccc3[nH]c2=O)CC1c1ccc(Br)cc1` (centres unmarked) [CCT020312, 6-bromo-3-[5-(4-bromo-phenyl)-1-(3-diethylamino-propionyl)-4,5-dihydro-1H-pyrazol-3-yl]-4-phenyl-1H-quinolin-2-one], the “number of viable cells: toxicity of annonacin and 4R-tau overexpression” value (LUHMES neurons) was “mitigated these effects”, the AD2-positive tau (tau [1]) was “not altered” and the “CP13 (Ser-202) phosphorylated tau” value (tau [1]) was “significantly reduced”. For the same compound, the HT7-positive tau (tau [1]) was “not altered”, the EIF2A phosphorylation (PERK) was “increase” and the “other arms of the UPR” value (PERK) was “remained unaffected”. For the same compound, the “total tau protein (HT7)” value (tau [2]) was “not altered”, the “AD2 (p-Ser-396 and 404) tau phosphorylation” value (tau [2]; vs annonacin alone) was “significantly reduced” and the “CP13 (p-Ser-202) tau phosphorylation” value (tau [2]; vs annonacin alone) was “significantly reduced”. For the same compound, the “MC1 pathological tau conformation” value (tau [2]; vs annonacin alone) was “reversed; also recorded: averted” and the 4R-tau protein amount [3] was “reduced”.

— patent US10369123B2, “Perk activator for the treatment of neurodegenerative diseases” (DEUTSCHES ZENTRUM FÜR NEURODEGENERATIVE ERKRANKUNGEN E.V. …, priority 2014, dated 2019)
